Data on 15 compounds can be found in PubChem BioAssay (NCI).

“And” between values parts separate entries of the source, which are not always exact repeats. Equal values may be shown once.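 Cultured in 96-well plates, cells were exposed to test compound for 48 hours across five concentrations. GI50: concentration for 50% inhibition of growth. TGI is the concentration that stops growth completely.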

Holding throughout (assay): NCI anticancer screen, dose series, 48 h
Test [1] deals with CCRF-CEM leukemia.
In test [2] the test system is HCT-116 colon.
Test [3] deals with HOP-62 NSCLC.
For test [4], the system named is IGROV1 ovarian.
Test [5] deals with K-562 leukemia.
In test [6] the test system is MALME-3M melanoma.
Test [7] deals with MCF7 breast.
The test system of test [8] is OVCAR-5 ovarian.
The subject of test [9] is SR leukemia.
Test [10] concerns UO-31 renal.

For the compound `CC1Cc2ccccc2N1C(=O)Cc1nc(N2CCOCC2)cc(=O)[nH]1` (stereo not given), the GI50 in [1] was 20.7 µM and 46.7 µM; in [2], 6.47 µM and 24.8 µM; in test [3] it was 53.8 µM and 59.9 µM; in test [4], 3.09 µM and 9.02 µM; in test [5] it was > 100 µM; in test [6] it was 3.18 µM and 7.81 µM. Further, the GI50 in test [7] was 2.3 µM and 4.77 µM; in test [8] it was 9.09 µM and 18.2 µM; in [9], 22.6 µM and 24.4 µM; in [10], 2.26 µM and 3.28 µM. The TGI in test [1] is > 100 µM; in [2] it was > 100 µM; in test [3], > 100 µM; in test [4], 22.8 µM and 52.6 µM; in test [5], > 100 µM; in test [6], 61.9 µM and > 79.1 µM. In addition, the TGI in [7] is > 100 µM; in test [8] it was > 100 µM; in [9] it was 97.3 µM and > 100 µM; in [10] it was > 100 µM.
Take `Cn1c(=O)c(Oc2ccc(F)cc2F)cc2cnc(NC3CCOCC3)nc21`: the GI50 in test [1], in test [2], in test [3], in test [4], in test [5] and in test [6] was > 25 µM each time. Moreover, the GI50 is > 25 µM in test [7], > 25 µM in [8], > 25 µM in [9] and 8.06 µM in test [10]. Moreover, the TGI in test [1], in test [2], in test [3], in [4], in [5] and in test [6] was > 25 µM throughout. The TGI in [7] is > 25 µM; in test [8], > 25 µM; in test [9], > 25 µM; in test [10], > 19.3 µM.
For `Cc1ccsc1-c1ccc2c(c1)COC2(CCCN(C)C)c1ccc(F)cc1` (stereo not given), the GI50 is 2.73 µM in [1]; 1.88 µM in [2]; 3.16 µM in [3]; 1.87 µM in test [4]; 2.46 µM in test [5]; 1.39 µM in test [6]. Further, the GI50 in test [7] was 1.74 µM; in test [8], 3.81 µM; in test [9], 2.29 µM; in test [10], 1.7 µM. Besides, the TGI in [1] was found to be 8.56 µM; in test [2] it was 3.7 µM; in [3], 12.8 µM; in test [4], 5.86 µM; in test [5], 8.05 µM; in [6], 2.8 µM. The TGI in test [7] worked out at 3.67 µM; in test [8] it was 15 µM; in [9], 7.3 µM; in test [10] it was 6.26 µM.
As to `CN(C)C=Nc1c(I)cc(I)c(CCC(=O)O)c1I`, the GI50 in test [1] was > 100 µM; in test [2] it was > 100 µM; in test [3] it was > 100 µM; in [4], > 100 µM; in test [5], 59.3 µM; in test [6], > 100 µM. Besides, the GI50 in [7], in test [8], in test [9] and in test [10] was > 100 µM throughout. Further, the TGI in [1], in test [2], in test [3], in [4], in test [5] and in [6] was > 100 µM throughout. Moreover, the TGI in test [7], in [8], in [9] and in [10] was > 100 µM in each case.
For `O=[N+]([O-])c1ccc2c(c1)C(c1ccccc1Cl)=Nc1c(n[nH]c1-c1cccnc1)N2`, the GI50 in test [1], in [2], in [3], in test [4], in [5] and in test [6] was > 25 µM each time. Moreover, the GI50 in test [7], in test [8], in test [9] and in test [10] was > 25 µM throughout. The TGI in test [1], in test [2], in test [3], in test [4], in [5] and in test [6] was > 25 µM throughout. Moreover, the TGI in test [7], in [8], in test [9] and in test [10] was > 25 µM throughout.
As for `COc1ccc(-c2[nH]nc(N)c2-c2cc(OC)c(OC)c(OC)c2)cc1`, the GI50 is 0.0325 µM in [1]; 0.0417 µM in test [2]; 0.0442 µM in test [3]; 0.0591 µM in [4]; 0.0315 µM in test [5]; 0.0337 µM in [6]. Also, the GI50 is 0.03 µM in test [7], 0.0659 µM in test [8], 0.0285 µM in test [9] and 0.0644 µM in [10]. Besides, the TGI was 42.6 µM in test [2]; > 100 µM in [3]; 20.4 µM in test [4]; > 100 µM in test [5]; > 100 µM in [6]; > 100 µM in test [7]. Further, the TGI in test [8] is > 100 µM; in test [9], > 42 µM; in test [10] it was 66.7 µM.
As to `CC/C=C\C[C@H](O)C/C=C1/C(=O)C=C[C@@H]1C/C=C\CCCCO`, the GI50 in test [1] was 2.43 µM; in test [2], 1.7 µM; in [3], 2.12 µM; in [4], 3.22 µM; in [5], 2.91 µM; in test [6] it was 2.44 µM. The GI50 was 0.544 µM in test [7], 3.25 µM in [8], 1.97 µM in [9] and 1.63 µM in test [10]. Further, the TGI in test [1] is 16.5 µM; in test [2], 3.33 µM; in test [3], 5 µM; in [4], 12 µM; in [5], > 100 µM; in test [6], 7.48 µM. The TGI in [7] came out at 10.6 µM; in test [8] it was 8.95 µM; in test [9], 16.2 µM; in test [10] it was 3.23 µM.
Consider `O=C1c2cc(F)ccc2-c2c1c1ccc([N+](=O)[O-])cc1c(=O)n2CCCBr`, for which the GI50 was 15.6 µM in test [1]; 7.23 µM in test [2]; 2.28 µM in test [3]; 17.4 µM in [4]; 22.4 µM in test [5]; 66.3 µM in [6]. The GI50 is 1.35 µM in test [7], 65.5 µM in [8], 0.0885 µM in test [9] and 13.9 µM in test [10]. Further, the TGI in [1] is > 100 µM; in test [2] it was 36.7 µM; in test [3] it was 8.64 µM; in test [4] it was > 100 µM; in [5], > 100 µM; in test [6] it was > 100 µM. Also, the TGI in test [7] is > 100 µM; in test [8], > 100 µM; in [9] it was 1.74 µM; in test [10] it was > 100 µM.
`COc1cc(C2CC(=O)Nc3c2c(C)nn3-c2nc3ccccc3[nH]2)cc(OC)c1O` (stereo not given): the GI50 in [1] was 1.34 µM; in test [2], 3.45 µM; in test [3], 3.72 µM; in [4], 2.82 µM; in test [5], 4.67 µM; in [6], 1.75 µM. The GI50 in test [7] is 3.13 µM; in [8], 11.6 µM; in [9] it was 3.35 µM; in test [10], 2.49 µM. Besides, the TGI in test [1] is > 100 µM; in [2], > 100 µM; in test [3] it was 17 µM; in test [4], 7.63 µM; in test [5], > 100 µM; in [6] it was 3.74 µM. The TGI in test [7] is > 100 µM; in test [8], 30.4 µM; in [9] it was 14.5 µM; in test [10] it was 7.7 µM.
Consider `COc1ccc(Cn2cc3c(c2-c2cc(OC)c(OC)c(OC)c2)CCc2c(CO)noc2-3)cc1`, for which the GI50 in test [1] was 0.347 µM; in test [2] it was 0.311 µM; in test [3] it was 0.397 µM; in test [4], 0.596 µM; in test [5], 0.313 µM; in [6] it was 2.46 µM. Moreover, the GI50 in test [7] is 0.176 µM; in test [8], 0.543 µM; in [9] it was 0.194 µM; in [10], 0.639 µM. Also, the TGI in test [1] is 23.7 µM; in test [2], 11.4 µM; in test [3] it was 25.7 µM; in test [4], 32.1 µM; in test [5], > 100 µM; in [6] it was 29.3 µM. Further, the TGI in test [7] is 17.8 µM; in test [8] it was > 82.3 µM; in [9], 23.2 µM; in test [10] it was 22.4 µM.
Turning to `CC(=O)N[C@@H](Cc1ccc(OP(=O)(O)O)cc1)C(=O)N[C@H]1CCC(=O)N2CCC[C@@H](C(=O)NCc3ccccc3)N2C1=O`, the GI50 in [1], in test [2], in test [3], in [4], in test [5] and in test [6] was > 25 µM each time. Further, the GI50 in test [7], in [8], in test [9] and in test [10] was > 25 µM throughout. Besides, the TGI in test [1], in [2], in test [3], in test [4], in test [5] and in [6] was > 25 µM in each case. The TGI in test [7], in test [8], in [9] and in [10] was > 25 µM throughout.
For the compound `COC(=O)c1oc2c(C(=O)/C=C/c3ccc(OC)cc3)c(OCCN3CCOCC3)ccc2c1C`, the GI50 was 0.395 µM in test [1]; 1.6 µM in [2]; 2.44 µM in test [3]; 1.85 µM in [4]; 1.44 µM in test [5]; 2.47 µM in test [6]. The GI50 in test [7] was 0.97 µM; in [8], 2.38 µM; in test [9], 0.287 µM; in [10], 1.89 µM. For the same compound, the TGI in test [1] came to 2.53 µM; in test [2], 4.55 µM; in [3], 6.88 µM; in test [4], 4.55 µM; in test [5], 4.82 µM; in test [6], 6.54 µM. The TGI worked out at 7.33 µM in test [7], 6.68 µM in [8], 1.29 µM in [9] and 5.25 µM in test [10].
As for `CC(C)C(=O)c1c(C(F)(F)F)n([O-])c2ccccc2[n+]1=O`, the GI50 in test [1] is 1.57 µM; in test [2], 1.25 µM; in test [3] it was 1.78 µM; in test [4], 1.11 µM; in [5], 0.508 µM; in [6], 0.654 µM. For the same compound, the GI50 in test [7] is 0.731 µM; in [8], 2.7 µM; in [9] it was < 0.0197 µM; in test [10], 1.18 µM. Further, the TGI was 9.83 µM in [1]; 3.99 µM in test [2]; 3.49 µM in test [3]; > 27.1 µM in test [5]; 2.03 µM in test [6]; 6.06 µM in test [7]. Also, the TGI in test [8] was found to be 6.25 µM; in test [10], 3.11 µM.
On to `CNC(=O)c1cccc(C#Cc2cncnc2Nc2ccc(OCc3cccc(F)c3)c(Cl)c2)c1`, for which the GI50 in [1] is > 25 µM; in test [2], 5.11 µM; in test [3], 5.03 µM; in test [4], 4.66 µM; in [5], 9.7 µM; in test [6], 9.31 µM. In addition, the GI50 in test [7] was 4.61 µM; in [8] it was 7.34 µM; in [9], 24.2 µM; in test [10] it was 1.58 µM. Further, the TGI in test [1] is > 25 µM; in [2] it was 13.6 µM; in [3] it was 10.4 µM; in test [4] it was > 25 µM; in test [5], > 25 µM; in [6], 24.6 µM. For the same compound, the TGI in test [7] is 12.5 µM; in test [8], > 25 µM; in test [9], > 25 µM; in [10], > 25 µM.
For the compound `CN(C)c1ccccc1[CH2][Ga]([Cl])[CH2]c1ccccc1N(C)C`, the GI50 in test [1] was 0.399 µM; in test [2], 0.833 µM; in [3] it was 1.21 µM; in test [4], 1.29 µM; in test [5] it was 1.46 µM; in test [6], 1.75 µM. The GI50 in test [7] is 0.954 µM; in [8], 1.35 µM; in test [9], 1.23 µM. Moreover, the TGI in [1] is 4.82 µM; in test [2], 2.17 µM; in test [3], 2.57 µM; in test [4], 2.73 µM; in test [5] it was 4.46 µM; in test [6], 3.32 µM. Further, the TGI is 2.67 µM in test [7], 2.73 µM in test [8] and 4.69 µM in test [9].
